Here are results for 2 compounds from PMC8376734, “RNAi-mediated gene knockdown of progesterone 5β-reductases in Digitalis lanata reduces 5β-cardenolide content” (Plant Cell Reports, 2021).

The target in one assay is T1, rDlP5βR1 (Digitalis lanata, UniProt Q6PQJ9).
T1 construct: recombinant in E. coli, pQE30 vector (Herl et al. 2006), His-tagged, IMAC purified
The assay is described as follows: NADPH consumption at […] nm, spectrophotometric. Format: biochemical. Conditions: 0.2 mM NADPH, 40 °C, substrate 0.01-1.6 mM.

A further assay concerns T2, rDlP5βR2.
T2 construct: gene P5βR2; recombinant in E. coli SoluBL21, pDEST17 vector, His-tagged, IMAC purified; cloned with primers deduced from D. purpurea P5βR2
Nature of the assay: NADPH consumption at […] nm, spectrophotometric. The format is biochemical, Digitalis lanata. The following applies: 0.2 mM NADPH, 40 °C, substrate 0.01-1.6 mM.

SMILES strings stand for the structures.

T1 sequence (Q6PQJ9 whole entry): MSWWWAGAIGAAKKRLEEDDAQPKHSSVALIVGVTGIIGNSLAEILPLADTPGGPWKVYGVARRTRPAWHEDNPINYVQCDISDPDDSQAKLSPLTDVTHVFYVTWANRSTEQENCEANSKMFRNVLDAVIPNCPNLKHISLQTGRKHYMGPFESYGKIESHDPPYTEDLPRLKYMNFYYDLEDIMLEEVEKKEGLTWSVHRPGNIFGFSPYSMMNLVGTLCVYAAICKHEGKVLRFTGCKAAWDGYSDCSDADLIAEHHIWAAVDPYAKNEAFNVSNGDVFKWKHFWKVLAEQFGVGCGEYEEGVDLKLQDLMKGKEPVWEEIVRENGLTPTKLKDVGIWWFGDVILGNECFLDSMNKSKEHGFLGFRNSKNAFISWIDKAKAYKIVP

`C=CC(C)=O` [methyl vinyl ketone]: the Km is 270 µM at rDlP5βR1 and 210 µM in the assay on rDlP5βR2.

Take `CC(=O)[C@H]1CC[C@H]2[C@@H]3CCC4=CC(=O)CC[C@]4(C)[C@H]3CC[C@]12C` [progesterone]: the Km in the assay with rDlP5βR2 is 230 µM.

The Km is the concentration of substrate that gives half-maximal velocity.
